# Measured values published in ChEMBL document CHEMBL1134487, “Design, synthesis, and biological evaluation of analogues of the antitumor agent, 2-(4-[(7-chloro-2-quinoxalinyl)oxy]phenoxy)propionic acid (XK469)” (2001).
# How the values were obtained:
# [1] = test system: Mus musculus; assay: Cytotoxicity against sc transplanted B-16 melanoma tumors of mouse origin, activity expressed as T/C(%) at the dose of 300 mg/kg, iv; assay type: functional
# [2] = test system: Mus musculus; assay: Cytotoxicity against sc transplanted DMS273 sm cell tumors of mouse and human origin, activity expressed as T/C(%) at the dose of 175 mg/kg, iv; assay type: functional
# [3] = test system: Mus musculus; assay: Cytotoxicity against iv transplanted L1210 tumors of mouse origin, activity expressed as %ILS at the dose of 300 mg/kg, iv; assay type: functional
# [4] = test system: Mus musculus; assay: Cytotoxicity against sc transplanted colon-51 tumors of mouse origin, activity expressed as T/C(%) at the dose of 980 mg/kg, po; assay type: functional
# [5] = test system: Mus musculus; assay: Cytotoxicity against sc transplanted colon-38 tumors of mouse origin, activity expressed as %body wt lose at the dose of 546 mg/kg, iv; assay type: functional
# [6] = test system: Mus musculus; assay: Cytotoxicity against sc transplanted colon-51 tumors of mouse origin, activity expressed as %body wt. loss at the dose of 980 mg/kg, po; assay type: functional
# [7] = test system: Mus musculus; assay: Cytotoxicity against sc transplanted Mam-16/C/Adr tumors of mouse origin, activity expressed as T/C(%) at the dose of 400 mg/kg, iv; assay type: functional
# [8] = test system: Mus musculus; assay: Cytotoxicity against sc transplanted Mam-17/Adr tumors of mouse origin, activity expressed as T/C(%) at the dose of 620 mg/kg, iv; assay type: functional
# [9] = test system: Mus musculus; assay: Cytotoxicity against sc transplanted Panc-03 tumors of mouse origin, activity expressed as %T/C at the dose of 328 mg/kg, po; assay type: functional
# [10] = test system: Mus musculus; assay: Cytotoxicity against sc transplanted colon-26 tumors of mouse origin, activity expressed as T/C(%) at the dose of 300 mg/kg, iv; assay type: functional
# [11] = test system: Mus musculus; assay: In vivo activity tested against C3H mice bearing mammary adenocarcinoma -17/ADR tumor measured as log Kill value was based on tumors that grew at 620 mg/kg (po); assay type: functional, organism-based; set-up: dose 620 mg/kg
# [12] = test system: Mus musculus; assay: Cytotoxicity against sc transplanted Mam-17/0 tumors of mouse origin, activity expressed as log10 Kill at the dose of 620 mg/kg, iv; assay type: functional, organism-based; set-up: dose 620 mg/kg
# [13] = test system: Mus musculus; assay: Cytotoxicity against sc transplanted Mam-17/Adr tumors of mouse origin, activity expressed as log10 Kill at the dose of 620 mg/kg, iv; assay type: functional, organism-based; set-up: dose 620 mg/kg
# [14] = test system: Mus musculus; assay: Cytotoxicity against sc transplanted Mam-16/C/Taxol tumors of mouse origin, activity expressed as cures at the dose of 480 mg/kg, iv; 0/5 cures; assay type: functional
# [15] = test system: Mus musculus; assay: Cytotoxicity against sc transplanted Mam-17/Adr tumors of mouse origin, activity expressed as cures at the dose of 620 mg/kg, iv; 0/5 cures; assay type: functional
# [16] = test system: Mus musculus; assay: Cytotoxicity against sc transplanted Panc-03 tumors of mouse origin, activity expressed as cures at the dose of 328 mg/kg, po; 4/6 cures; assay type: functional
# [17] = test system: Mus musculus; assay: Cytotoxicity against sc transplanted colon-51 tumors of mouse origin, activity expressed as log10 Kill at the dose of 980 mg/kg, po; assay type: functional, organism-based; set-up: dose 980 mg/kg
# [18] = test system: Mus musculus; assay: In vivo activity tested against C3H mice bearing panc-03 murine tumor measured as log Kill value was based on tumors that grew at 328 mg/kg (po); assay type: functional, organism-based; set-up: dose 328 mg/kg
# [19] = test system: Mus musculus; assay: In vivo activity tested against C3H mice bearing mammary adenocarcinoma -17/ADR tumor measured as activity rating at 620 mg/kg (po); assay type: functional
# [20] = test system: Mus musculus; assay: Cytotoxicity against sc transplanted Mam-16/C tumors of mouse origin, activity expressed as cures at the dose of 525 mg/kg, iv; 1/5 cures; assay type: functional
# [21] = test system: Mus musculus; assay: Cytotoxicity against iv transplanted AML1498 tumors of mouse origin, activity expressed as log10 Kill at the dose of 165 mg/kg, iv; assay type: functional, organism-based; set-up: dose 165 mg/kg
# [22] = test system: Mus musculus; assay: Cytotoxicity against iv transplanted L1210 tumors of mouse origin, activity expressed as log10 Kill at the dose of 300 mg/kg, iv; assay type: functional, organism-based; set-up: dose 300 mg/kg
# [23] = test system: Mus musculus; assay: Cytotoxicity against sc transplanted B-16 melanoma tumors of mouse origin, activity expressed as log10 Kill at the dose of 300 mg/kg, iv; assay type: functional, organism-based; set-up: dose 300 mg/kg
# [24] = test system: Mus musculus; assay: Cytotoxicity against sc transplanted DMS273 sm cell tumors of mouse and human origin, activity expressed as log10 Kill at the dose of 175 mg/kg, iv; assay type: functional, organism-based; set-up: dose 175 mg/kg
# [25] = test system: Mus musculus; assay: Cytotoxicity against sc transplanted L1210 tumors of mouse origin, activity expressed as log10 Kill at the dose of 332 mg/kg, iv; assay type: functional, organism-based; set-up: dose 332 mg/kg
# [26] = test system: Mus musculus; assay: Cytotoxicity against sc transplanted Mam-16/C tumors of mouse origin, activity expressed as log kill at the dose of 525 mg/kg, iv; assay type: functional, organism-based; set-up: dose 525 mg/kg
# [27] = test system: Mus musculus; assay: Cytotoxicity against iv transplanted AML1498 tumors of mouse origin, activity expressed as %body wt. loss at the dose of 165 mg/kg, iv; assay type: functional
# [28] = test system: Mus musculus; assay: Cytotoxicity against iv transplanted L1210 tumors of mouse origin, activity expressed as %body wt. loss at the dose of 300 mg/kg, iv; assay type: functional
# [29] = test system: Mus musculus; assay: Cytotoxicity against sc transplanted B-16 melanoma tumors of mouse origin, activity expressed as %body wt. loss at the dose of 300 mg/kg, iv; assay type: functional
# [30] = test system: Mus musculus; assay: Cytotoxicity against sc transplanted DMS273 sm cell tumors of mouse and human origin, activity expressed as %body wt. loss at the dose of 175 mg/kg, iv; assay type: functional
# [31] = test system: Mus musculus; assay: Cytotoxicity against sc transplanted L1210 tumors of mouse origin, activity expressed as %body wt. loss at the dose of 332 mg/kg, iv; assay type: functional
# [32] = test system: Mus musculus; assay: Cytotoxicity against sc transplanted Mam-16/C tumors of mouse origin, activity expressed as %body wt loss at the dose of 525 mg/kg, iv; assay type: functional
# [33] = test system: Mus musculus; assay: Cytotoxicity against sc transplanted colon-51 tumors of mouse origin, activity expressed as cures at the dose of 980 mg/kg, po; 1/5 cures; assay type: functional
# [34] = test system: Mus musculus; assay: Cytotoxicity against transplanted Panc-02 tumors of mouse origin, activity expressed as cures at the dose of 600 mg/kg, iv; 0/6 cures; assay type: functional
# [35] = test system: Mus musculus; assay: In vivo activity tested against C3H mice bearing panc-03 murine tumor, measured as cures at 328 mg/kg (po); 4/6 cures; assay type: functional
# [36] = test system: Mus musculus; assay: Cytotoxicity against sc transplanted Mam-16/C/Taxol tumors of mouse origin, activity expressed as %body wt. loss at the dose of 480 mg/kg, iv; assay type: functional
# [37] = test system: Mus musculus; assay: Cytotoxicity against sc transplanted Mam-17/Adr tumors of mouse origin, activity expressed as %body wt. loss at the dose of 620 mg/kg, iv; assay type: functional
# [38] = test system: Mus musculus; assay: Cytotoxicity against sc transplanted Panc-03 tumors of mouse […] origin, activity expressed as %body wt loss at the dose of 328 mg/kg, po; assay type: functional
# [39] = test system: Mus musculus; assay: Cytotoxicity against sc transplanted Squam-lung-LC12 tumors of mouse, activity expressed as %body wt loss at the dose of 400 mg/kg, iv; assay type: functional
# [40] = test system: Mus musculus; assay: Cytotoxicity against sc transplanted colon-26 tumors of mouse origin, activity expressed as %body wt. loss at the dose of 300 mg/kg, iv; assay type: functional
# [41] = test system: Mus musculus; assay: Cytotoxicity against sc transplanted B-16 melanoma tumors of mouse origin, activity expressed as cures at the dose of 300 mg/kg, iv; 0/5 cures; assay type: functional
structure (smiles),measurement,setting,value
CC(Oc1ccc(Oc2cnc3ccc(Cl)cc3n2)cc1)C(=O)O (stereo unspecified),T/C,[1],4%
same,T/C,[2],14%
same,ILS at 300 mg/kg,[3],160%
same,T/C,[4],0%
same,Body weight loss,[5],-3.5%
same,Body weight loss,[6],-5%
same,T/C,[7],0%
same,T/C,[8],2%
same,T/C,[9],0%
same,T/C,[10],14%
same,Log kill,[11],3.9
same,Log kill,[12],3.4
same,Log kill,[13],3.9
same,Cures,[14],0
same,Cures,[15],0
same,Cures,[16],4
same,Log kill,[17],2.7
same,Log kill,[18],2.1
same,Activity rating,[19],>2.8
same,Cures,[20],1
same,Log kill,[21],2
same,Log kill,[22],6.4
same,Log kill,[23],2.6
same,Log kill,[24],1.6
same,Log kill,[25],0.8
same,Log kill,[26],5.2
same,Body weight loss,[27],-7%
same,Body weight loss,[28],-2%
same,Body weight loss,[29],-11%
same,Body weight loss,[30],-8%
same,Body weight loss,[31],-16%
same,Body weight loss,[32],-9%
same,Cures,[33],1
same,Cures,[34],0
same,Cures,[35],4
same,Body weight loss,[36],-11%
same,Body weight loss,[37],-4%
same,Body weight loss,[38],-4%
same,Body weight loss,[39],-3%
same,Body weight loss,[40],-12%
same,Cures,[41],0
